The target in assay [1] is T1, Sphingomyelin Synthase 1 (SMS1 pure enzyme) (Homo sapiens, UniProt Q86VZ5).
T1 construct: Yu, Cao research group of National Protein Science Center (Shanghai)
T1 sequence (Q86VZ5 1-413): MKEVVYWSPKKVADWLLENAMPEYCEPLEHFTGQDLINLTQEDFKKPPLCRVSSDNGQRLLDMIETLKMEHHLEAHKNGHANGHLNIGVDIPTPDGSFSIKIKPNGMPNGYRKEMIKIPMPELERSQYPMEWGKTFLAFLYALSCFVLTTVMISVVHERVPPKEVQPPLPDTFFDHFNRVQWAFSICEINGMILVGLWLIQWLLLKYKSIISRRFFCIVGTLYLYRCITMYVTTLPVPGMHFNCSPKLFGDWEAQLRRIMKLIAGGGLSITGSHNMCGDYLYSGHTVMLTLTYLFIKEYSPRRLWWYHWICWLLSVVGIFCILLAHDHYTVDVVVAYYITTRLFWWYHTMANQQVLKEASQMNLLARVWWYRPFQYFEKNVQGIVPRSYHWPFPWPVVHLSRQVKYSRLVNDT
The assay can be described thus: In vitro SMS1 pure enzyme inhibition, HPLC fluorogenic quantitative detecting method. The format is biochemical. Particulars: for inhibition at 50 µM: single concentration 50 μM. An excerpt:
Referring to the above SMS2 inhibitory activity detection method, and using SMS1 pure enzyme instead of SMS2 pure enzyme for corresponding operation.
(§1) Using the same HPLC fluorogenic quantitative detecting method as reference (Xiaodong Deng; Hong Sun; et al. Analytical Letters, 2012, 45:12, 1581-1589) to analyses samples obtained above. Analysize and record peak areas of C6-NBD-SM (Asm) and C6-NBD-Ceramide (Acer) of each sample from blank group, positive control group (compound D2) and under tested compound group. Calculate inhibition rate from the formula below: […]
Part 4. Determination of SMS1 Median Inhibitory Concentration (IC50) and SMS1 Single Concentration (50 μM) Inhibitory Concentration of Alkoxybenzeno Five- or Six-Member Heterocyclic Amines (Scheme I-1˜I-38)
The experiment can be carried out with the corresponding concentration according to the operation similar to the determination of the median inhibitory concentration (IC50) of SMS2.

The target in assay [2] is T2, Sphingomyelin Synthase 2 (SMS2 pure enzyme) (Homo sapiens, UniProt Q8NHU3).
T2 construct: Yu, Cao research group of National Protein Science Center (Shanghai)
T2 sequence (Q8NHU3 1-365): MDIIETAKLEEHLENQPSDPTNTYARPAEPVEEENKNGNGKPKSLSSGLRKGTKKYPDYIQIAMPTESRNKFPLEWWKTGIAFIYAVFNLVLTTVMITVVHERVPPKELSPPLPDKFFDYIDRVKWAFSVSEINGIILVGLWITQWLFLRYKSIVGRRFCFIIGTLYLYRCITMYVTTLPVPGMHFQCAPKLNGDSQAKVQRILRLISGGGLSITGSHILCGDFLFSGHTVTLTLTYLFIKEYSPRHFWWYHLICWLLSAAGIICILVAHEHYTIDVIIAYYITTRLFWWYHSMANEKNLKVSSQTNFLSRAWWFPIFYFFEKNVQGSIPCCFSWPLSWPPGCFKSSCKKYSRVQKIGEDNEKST
The assay can be described thus: In vitro SMS2 pure enzyme inhibition, HPLC fluorogenic quantitative detecting method (C6-NBD-Ceramide to C6-NBD-SM). The format is biochemical. Particulars: for IC50: SMS2 pure enzyme, five concentrations, three parallel groups, experimental value; for Selectivity ratio: SMS1 IC50 relative to SMS2 IC50. How it is done:
Add […] SMS2 pure enzyme DDM solution (total protein content 1.5 μg/μL), 1 μL test compound in DMSO solution or blank DMSO solution, 79.7 μL DDM buffer to 1.5 mL Eppendorf tube, vortex 30 seconds, let stand at room temperature for 5 min. Then add 20 μL DDM buffer containing 1 μL DMPC in ethanol (40 mmol/L) and 1 μL C6-NBD-Ceramide in DMSO (1.16 mmol/L). After vortexing for 30 seconds, Incubate for 0.5 h under water bath at 37° C. Then remove, add 200 μL of absolute ethanol, and vortex for 30 seconds. Take out 200 μL of the mixture and store it at 4° C. for high performance liquid chromatography analysis.
as §1
The DMSO stock solution of under tested compound (6 mM) was diluted stepwise into five concentration gradient. 1 μL solution of each concentration was added into the trial system to prepare samples with the method mentioned in the first step of application case 15. The Asm values of the five concentration solution of tested compound were measured (compound D2 is a positive control), and the inhibition rate under the five concentration were calculated and fitted to obtain median inhibitory concentration (IC50). Each compound was measured three parallel groups. SMS2 median inhibitory concentration and SMS1 single inhibitory concentration (50 μM) of Scheme I-1˜I-38, and SMS1 median inhibitory concentration of some compounds are listed below in Table 1.

Turning to `c1ccc(COc2cccc3snc(Nc4cccnc4)c23)cc1` [Scheme I-31, 4-(benzyloxy)-N-(pyridin-3-yl)benzo[d]isothiazol-3-amine], in assay [1], the inhibition at 50 µM was found to be 13%. This compound also registered a 50% inhibitory concentration (IC50) in assay [2] of 1460 nM.

`Fc1cccc(F)c1COc1cccc2onc(Nc3cccnc3)c12` [Scheme I-27, 4-((2,6-Difluorobenzyl)oxy)-N-(pyridin-3-yl)benzo[d]isoxazol-3-amine]: the inhibition at 50 µM in assay [1] was 30%. Moreover, in assay [2], 720 nM corresponded to half-maximal inhibition (IC50).

Regarding `FC(F)(F)c1cccc(COc2cccc3onc(Nc4cccnc4)c23)c1` [Scheme I-14, 4-((3-Trifluoromethylbenzyl)oxy)-N-(pyridin-3-yl)benzo[d]isoxazole-3-amine], the inhibition at 50 µM in assay [1] was found to be 25%. This compound registered an IC50 in assay [2] of 486 nM.

In the case of `Cc1cccc(C)c1COc1cccc2onc(Nc3cccnc3)c12` [Scheme I-25, 4-((2,6-Dimethylbenzyl)oxy)-N-(pyridin-3-yl)benzo[d]isoxazol-3-amine], in assay [1], the half-maximal inhibitory concentration (IC50) was found to be 47000 nM and the inhibition at 50 µM was found to be 53%. Moreover, in assay [2], the Selectivity ratio came to 307 and the concentration for half-maximal inhibition (IC50) worked out at 153 nM.

Consider `N#Cc1cccc(COc2cccc3onc(Nc4cccnc4)c23)c1` [Scheme I-23, 4-((3-Cyanobenzyl)oxy)-N-(pyridin-3-yl)benzo[d]isoxazol-3-amine], for which the inhibition at 50 µM in assay [1] was 8%. The compound also registered a half-maximal inhibitory concentration (IC50) in assay [2] of 945 nM.

Regarding `Fc1ccc(Cl)c(COc2cccc3onc(Nc4cncnc4)c23)c1` [Scheme I-33, 4-((2-chloro-5-fluorobenzyl)oxy)-N-(pyrimidin-5-yl)benzo[d]isoxazol-3-amine], the inhibition at 50 µM in assay [1] stood at 60%. Besides, the 50% inhibitory concentration (IC50) in assay [2] stood at 860 nM.

As to `N#Cc1ccc(COc2cccc3onc(Nc4cccnc4)c23)cc1` [Scheme I-24, 4-((4-Cyanobenzyl)oxy)-N-(pyridin-3-yl)benzo[d]isoxazol-3-amine], the inhibition at 50 µM in assay [1] is -18%.

For `FC(F)(F)Oc1ccc(COc2cccc3onc(Nc4cccnc4)c23)cc1` [Scheme I-21, 4-((4-Trifluoromethoxybenzyl)oxy)-N-(pyridin-3-yl)benzo[d]-isoxazol-3-amine], the inhibition at 50 µM in assay [1] came to 5%. For the same compound, the IC50 in assay [2] is greater than 10000 nM.

Consider `c1ccc(-c2cc(COc3cccc4onc(Nc5cccnc5)c34)ccn2)cc1` [Scheme I-39, 4-((2-phenylpyridin-4-yl)methoxy)-N-(pyridin-3-yl)benzo[d]isoxazol-3-amine], for which the inhibition at 50 µM in assay [1] was -6%. Also, the half-maximal inhibitory concentration (IC50) in assay [2] came out at 13000 nM.

On to `Fc1ccc(Cl)c(COc2cccc3onc(Nc4cccnc4)c23)c1` [Scheme I-2, 4-((2-Chloro-5-fluorobenzyl)oxy)-N-(pyridin-3-yl)benzo[d]-isoxazol-3-amine], for which, in assay [1], the concentration for half-maximal inhibition (IC50) was 55000 nM and the inhibition at 50 µM amounted to 44%. Also, in assay [2], the Selectivity ratio was 539 and the half-inhibitory concentration (IC50) was 102 nM.

Consider `Fc1ccccc1COc1cccc2onc(Nc3cccnc3)c12` [Scheme I-4, 4-((2-fluorobenzyl)oxy)-N-(pyridin-3-yl)benzo[d]isoxazol-3-amine], for which the inhibition at 50 µM in assay [1] is 6%. This compound also returned a half-maximal inhibitory concentration (IC50) in assay [2] of 660 nM.

For the compound `CCN(CC)CC(=O)Nc1noc2cccc(OCc3cc(F)ccc3Cl)c12` [Scheme I-35, N-(4-((2-chloro-5-fluorobenzyl)oxy)benzo[d]isoxazol-3-yl)-2-(diethylamino) acetamide], the inhibition at 50 µM in assay [1] came out at 11%. For the same compound, the IC50 in assay [2] is greater than 10000 nM.

Regarding `Cc1ccc(COc2cccc3onc(Nc4cccnc4)c23)cc1` [Scheme I-12, 4-((4-methylbenzyl)oxy)-N-(pyridin-3-yl)benzo[d]isoxazol-3-amine], in assay [1], the inhibition at 50 µM amounted to 5%.

Consider `COc1cccc(COc2cccc3onc(Nc4cccnc4)c23)c1` [Scheme I-17, 4-((3-Methoxybenzyl)oxy)-N-(pyridin-3-yl)benzo[d]isoxazol-3-amine], for which the inhibition at 50 µM in assay [1] came to 17%. The compound further registered an IC50 in assay [2] of 523 nM.

With `CN(C)CC(=O)Nc1noc2cccc(OCc3cc(F)ccc3Cl)c12` [Scheme I-34, N-(4-((2-chloro-5-fluorobenzyl)oxy)benzo[d]isoxazol-3-yl)-2-(dimethylamino)acetamide], the inhibition at 50 µM in assay [1] was 3%.

Take `O=C(CN1CCOCC1)Nc1noc2cccc(OCc3cc(F)ccc3Cl)c12` [Scheme I-38, N-(4-((2-chloro-5-fluorobenzyl)oxy)benzo[d]isoxazol-3-yl)-2-morpholinoacetamide]: the inhibition at 50 µM in assay [1] was -1%. In assay [2], this compound gave an IC50 greater than 10000 nM.

As to `O=C(CN1CCCCC1)Nc1noc2cccc(OCc3cc(F)ccc3Cl)c12` [Scheme I-37, N-(4-((2-chloro-5-fluorobenzyl)oxy)benzo[d]isoxazol-3-yl)-2-(piperidin-1-yl)acetamide], the inhibition at 50 µM in assay [1] is 60%. In addition, in assay [2], the IC50 was greater than 10000 nM.

For the compound `Clc1cccc(COc2cccc3onc(Nc4cccnc4)c23)c1` [Scheme I-8, 4-((3-chlorobenzyl)oxy)-N-(pyridin-3-yl)benzo[d]isoxazol-3-amine], in assay [1], inhibition was half-maximal at 79000 nM (IC50) and the inhibition at 50 µM came to 44%. Further, in assay [2], the Selectivity ratio came out at 840 and the half-inhibitory concentration (IC50) was 94 nM.

On to `COc1ccc(COc2cccc3onc(Nc4cccnc4)c23)cc1` [Scheme I-18, 4-((4-Methoxybenzyl)oxy)-N-(pyridin-3-yl)benzo[d]isoxazol-3-amine], for which the inhibition at 50 µM in assay [1] was -5%.

For `FC(F)(F)Oc1ccccc1COc1cccc2onc(Nc3cccnc3)c12` [Scheme I-19, 4-((2-Trifluoromethoxybenzyl)oxy)-N-(pyridin-3-yl)benzo[d]-isoxazol-3-amine], in assay [1], the half-inhibitory concentration (IC50) worked out at 67000 nM and the inhibition at 50 µM was determined as 59%. In assay [2], the Selectivity ratio came to 726 and the IC50 came to 107 nM.

In the case of `O=C(CN1CCCC1)Nc1noc2cccc(OCc3cc(F)ccc3Cl)c12` [Scheme I-36, N-(4-((2-chloro-5-fluorobenzyl)oxy)benzo[d]isoxazol-3-yl)-2-(pyrrolidin-1-y) acetamide], the inhibition at 50 µM in assay [1] turned out to be 9%. This compound returned an IC50 in assay [2] greater than 10000 nM.

On to `Cn1nc(Nc2cccnc2)c2c(OCc3ccccc3)cccc21` [Scheme I-30, 4-(benzyloxy)-1-methyl-N-(pyridin-3-yl)-1H-indazol-3-amine], for which the inhibition at 50 µM in assay [1] amounted to 1%.

As for `c1ccc(COc2cccc3[nH]nc(Nc4cccnc4)c23)cc1` [Scheme I-29, 4-(benzyloxy)-N-(pyridin-3-yl)-1H-indazol-3-amine], in assay [1], the inhibition at 50 µM was -7%.

Take `c1ccc(COc2cccc3ccnc(Nc4cccnc4)c23)cc1` [Scheme I-32, 8-(benzyloxy)-N-(pyridin-3-yl)isoquinolin-1-amine]: the inhibition at 50 µM in assay [1] worked out at 18%.

For the compound `CN(c1cccnc1)c1noc2cccc(OCc3c(Cl)cccc3Cl)c12` [Scheme I-28, 4-((2,6-dichlorobenzyl)oxy)-N-methyl-N-(pyridin-3-yl)benzo[d]isoxazol-3-amine], the inhibition at 50 µM in assay [1] was determined as 29%.

`CC(C)(C)OC(=O)N1CCC(CCCOc2cccc3onc(Nc4cccnc4)c23)CC1` [Scheme I-40, Tert-Butyl 4-(3-((3-(pyridin-3-ylamino)benzo[d]isoxazol-4-yl)oxy)propyl)piperidine-1-carboxylate]: the inhibition at 50 µM in assay [1] turned out to be 9%.

The term inhibition denotes the drop in the measured response relative to a control, in per cent. A word on the IC50: it is the concentration that inhibits the measured activity by half. Higher therefore signals lower potency.

The values above are taken from patent US11396504B2, “Alkoxybenzo-five-membered (six-membered) heterocyclic amine compound and pharmaceutical use thereof” (FUDAN UNIVERSITY, priority 2018, dated 2022).
